Laboratory results published in the NIST ThermoML archive (doi:10.1021/je060271a).
± gives the expanded uncertainty stated by the source.

Conditions: 323.14 K, Liquid, Vibrating tube method

CCCC(=O)OCC(COC(=O)CCC)(COC(=O)CCC)COC(=O)CCC [pentaerythritol tetrabutyrate]
Conditions | mass density [kg/m3]
17664 kPa | 1037.3 ± 1.2
17706 kPa | 1037.2 ± 1.3
17742 kPa | 1037.4 ± 1.2
17779 kPa | 1037.3 ± 1.2
17823 kPa | 1037.3 ± 1.2
17860 kPa | 1037.3 ± 1.2
17896 kPa | 1037.3 ± 1.2
17933 kPa | 1037.5 ± 1.2
17977 kPa | 1037.4 ± 1.2
18014 kPa | 1037.5 ± 1.2
18060 kPa | 1037.4 ± 1.2
18099 kPa | 1037.5 ± 1.2
18137 kPa | 1037.5 ± 1.2
18184 kPa | 1037.6 ± 1.2
18224 kPa | 1037.5 ± 1.2
18264 kPa | 1037.7 ± 1.2
18304 kPa | 1037.6 ± 1.2
18346 kPa | 1037.8 ± 1.2
18376 kPa | 1037.8 ± 1.2
18470 kPa | 1037.7 ± 1.2
18504 kPa | 1037.6 ± 1.2
18534 kPa | 1037.7 ± 1.2
18564 kPa | 1037.8 ± 1.2
18600 kPa | 1037.9 ± 1.2
18629 kPa | 1037.8 ± 1.3
18660 kPa | 1037.9 ± 1.2
18695 kPa | 1037.8 ± 1.2
18793 kPa | 1037.9 ± 1.2
18818 kPa | 1038 ± 1.2
18855 kPa | 1038 ± 1.2
18891 kPa | 1038 ± 1.3
18922 kPa | 1037.9 ± 1.2
18954 kPa | 1038 ± 1.2
18986 kPa | 1038.2 ± 1.3
19023 kPa | 1038 ± 1.3
19055 kPa | 1038 ± 1.3
19093 kPa | 1038.2 ± 1.2
19125 kPa | 1038.1 ± 1.3
19157 kPa | 1038.1 ± 1.3
19219 kPa | 1038.2 ± 1.3
19363 kPa | 1038.3 ± 1.3
19716 kPa | 1038.6 ± 1.3
19756 kPa | 1038.7 ± 1.3
19790 kPa | 1038.6 ± 1.3
19824 kPa | 1038.7 ± 1.3
19866 kPa | 1038.6 ± 1.3
19901 kPa | 1038.7 ± 1.3
19935 kPa | 1038.8 ± 1.3
20012 kPa | 1038.8 ± 1.3
20274 kPa | 1038.9 ± 1.3
20318 kPa | 1038.9 ± 1.3
20356 kPa | 1038.9 ± 1.3
20392 kPa | 1038.9 ± 1.3
20429 kPa | 1039.1 ± 1.3
20472 kPa | 1039.1 ± 1.3
20510 kPa | 1039 ± 1.3
20629 kPa | 1039.2 ± 1.3
20667 kPa | 1039.1 ± 1.3
20706 kPa | 1039.2 ± 1.3
20751 kPa | 1039.2 ± 1.3
20789 kPa | 1039.2 ± 1.3
20828 kPa | 1039.3 ± 1.3
20869 kPa | 1039.3 ± 1.3
20908 kPa | 1039.4 ± 1.3
20954 kPa | 1039.3 ± 1.3
20992 kPa | 1039.4 ± 1.3
21039 kPa | 1039.3 ± 1.3
21079 kPa | 1039.4 ± 1.3
21117 kPa | 1039.6 ± 1.3
21156 kPa | 1039.4 ± 1.3
21204 kPa | 1039.5 ± 1.3
21243 kPa | 1039.5 ± 1.3
21283 kPa | 1039.5 ± 1.3
21333 kPa | 1039.5 ± 1.3
21374 kPa | 1039.6 ± 1.3
21416 kPa | 1039.6 ± 1.3
21465 kPa | 1039.7 ± 1.3
21508 kPa | 1039.7 ± 1.3
21593 kPa | 1039.7 ± 1.3
22639 kPa | 1040.4 ± 1.3
22677 kPa | 1040.4 ± 1.3
22723 kPa | 1040.4 ± 1.3
22761 kPa | 1040.5 ± 1.3
22807 kPa | 1040.5 ± 1.3
22845 kPa | 1040.5 ± 1.3
22884 kPa | 1040.5 ± 1.3
22932 kPa | 1040.5 ± 1.3
22972 kPa | 1040.6 ± 1.3
23010 kPa | 1040.7 ± 1.3
23051 kPa | 1040.6 ± 1.3
23098 kPa | 1040.7 ± 1.3
23137 kPa | 1040.7 ± 1.3
23185 kPa | 1040.7 ± 1.3
23224 kPa | 1040.8 ± 1.3
23265 kPa | 1040.8 ± 1.3
23314 kPa | 1040.8 ± 1.3
23354 kPa | 1040.9 ± 1.3
23396 kPa | 1040.8 ± 1.3
23445 kPa | 1040.8 ± 1.3
23487 kPa | 1041 ± 1.3
23528 kPa | 1040.9 ± 1.3
23578 kPa | 1041 ± 1.3
23620 kPa | 1041 ± 1.3
23662 kPa | 1041.1 ± 1.3
23705 kPa | 1041 ± 1.3
23756 kPa | 1041.1 ± 1.3
23800 kPa | 1041.1 ± 1.3
24059 kPa | 1041.3 ± 1.3
24170 kPa | 1041.4 ± 1.3
24213 kPa | 1041.4 ± 1.3
24248 kPa | 1041.5 ± 1.3
24441 kPa | 1041.6 ± 1.3
24478 kPa | 1041.6 ± 1.3
24516 kPa | 1041.6 ± 1.3
24554 kPa | 1041.6 ± 1.3
24598 kPa | 1041.7 ± 1.3
24634 kPa | 1041.6 ± 1.3
24671 kPa | 1041.6 ± 1.3
24708 kPa | 1041.8 ± 1.3
24752 kPa | 1041.8 ± 1.3
24955 kPa | 1041.8 ± 1.3
24993 kPa | 1041.9 ± 1.3
25031 kPa | 1041.9 ± 1.3
25070 kPa | 1041.9 ± 1.3
25108 kPa | 1041.9 ± 1.3
25155 kPa | 1042.1 ± 1.3
25193 kPa | 1042 ± 1.3
25232 kPa | 1042 ± 1.3
25278 kPa | 1042 ± 1.3
25825 kPa | 1042.4 ± 1.3
25865 kPa | 1042.5 ± 1.3
25913 kPa | 1042.5 ± 1.3
25954 kPa | 1042.5 ± 1.3
25996 kPa | 1042.5 ± 1.3
26045 kPa | 1042.6 ± 1.3
26086 kPa | 1042.6 ± 1.3
26129 kPa | 1042.6 ± 1.3
26170 kPa | 1042.7 ± 1.3
26220 kPa | 1042.7 ± 1.3
26262 kPa | 1042.7 ± 1.3
26305 kPa | 1042.7 ± 1.3
26355 kPa | 1042.7 ± 1.3
26397 kPa | 1042.8 ± 1.3
26448 kPa | 1042.8 ± 1.3
26490 kPa | 1042.8 ± 1.3
26533 kPa | 1042.9 ± 1.3
